# Results from paper PMC3705751 (Evidence-based Complementary and Alternative Medicine : eCAM, 2013).
# Read-outs that look alike come from different tables or passages of the source.
# How the values were obtained:
# Cytotoxic assay (MTT) = settings: dog, MDCK cells
# [1] = tested on: pandemic 2009 H1N1 influenza A virus; experiment: Plaque inhibition assay in MDCK cells; assay type: cell-based, Pandemic influenza A/Taiwan/CMUH/2009 (H1N1); settings: 72 h, read-out: Plaque inhibition IC50 values, Pandemic 2009 H1N1
# [2] = target: NA of PR8 H1N1 influenza A virus (Influenza A virus, UniProt P03468); experiment: NA enzymatic activity inhibition, fluorometric MUNANA assay; assay type: biochemical, Influenza A/Puerto Rico/8/34 (H1N1)
# Excerpt: Pandemic influenza A/Taiwan/CMUH/2009 (H1N1) (pandemic 2009 H1N1 virus), seasonal influenza A/Taiwan//CMUH/2007 (H1N1), 2009 (H1N1), and 2009 (H3N2) (seasonal 2007 H1N1, 2009 H1N1, and 2009 H3N2 influenza A viruses) were isolated in the clinical virology laboratory of China Medical University Hospital, Taiwan. Influenza A/Puerto Rico/8/34 (H1N1) (PR8 H1N1 virus) was kindly provided by Dr. Wei-Li Hsu (Institute of Microbiology and Public Health, National Chung-Hsing University). HA subtype of all influenza A viruses used was confirmed by RT-PCR or real-time RT-PCR with specific primers (see Supplementary Table 1 in the Supplementary Material available online at http://dx.doi.org/10.1155/2013/750803).
# Fluorometric substrate 2′-(4-methylumbelliferyl)-α-D-N-acetylneuraminic acid (MUNANA; Sigma) was used to determine NA activity as described in a prior report. To determine NA activity of pandemic 2009 H1N1 and seasonal 2007 H1N1 viruses, serial 10-fold dilution of viruses (10^6 PFU/mL) was added to the wells of a 96-well plate, mixed with MUNANA solution at final concentration of 300 μM, and then incubated for 1 h at 37°C. Relative NA enzymatic activity was determined as the fluorescent intensity at a 360 nm excitation and a 460 nm emission wavelength (Multidetection Fluorescence-Luminescence Microplate Reader). […] Concentration of each extract or flavonoid showing 50% inhibitory effect (IC50) compared to the control with no inhibitor was determined by computer program (provided by John Spouge, National Institutes of Health).
# [3] = tested on: seasonal 2007 H1N1 influenza A virus; experiment: microbe, parasite or virus in culture; assay type: cell-based; settings: read-out: Plaque inhibition IC50 values, Seasonal 2007 H1N1
# in vitro = settings: dog
# [4] = flavonoids, MUNANA substrate, read-out: NA inhibition IC50 values, PR8 H1N1
# NA of PR8 H1N1 influenza A virus, sequence (P03468 whole entry): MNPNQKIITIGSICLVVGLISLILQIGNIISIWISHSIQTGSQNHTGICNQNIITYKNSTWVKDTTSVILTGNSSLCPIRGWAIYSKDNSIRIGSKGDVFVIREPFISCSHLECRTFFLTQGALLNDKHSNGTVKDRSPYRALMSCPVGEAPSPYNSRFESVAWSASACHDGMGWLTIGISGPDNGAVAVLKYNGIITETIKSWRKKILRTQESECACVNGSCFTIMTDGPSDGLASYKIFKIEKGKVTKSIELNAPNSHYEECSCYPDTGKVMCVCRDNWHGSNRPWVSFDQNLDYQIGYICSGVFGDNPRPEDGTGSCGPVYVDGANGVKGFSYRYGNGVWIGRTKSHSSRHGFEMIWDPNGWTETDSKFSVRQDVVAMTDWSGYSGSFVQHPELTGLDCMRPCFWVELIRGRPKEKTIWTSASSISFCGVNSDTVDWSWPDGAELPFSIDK
Compound,CC50 at 48 h (Cytotoxic assay (MTT)),IC50 [1],IC50 [2],"IC50 ([3]; Influenza A virus, MDCK, 72 h)","IC50 [2, 4]",CC50 (in vitro),"IC50 ([3]; flavonoids, MDCK cells, 3 days)",CC50 MDCK cells (MDCK cells)
O=c1cc(-c2ccccc2)oc2cc(O)c(O)c(O)c12 [Baicalein],0.045 ± 0.088 µM,0.02 µM,0.181 µM,0.018 µM,–,–,–,–
O=c1cc(-c2ccccc2)oc2cc(O)cc(O)c12 [Chrysin],–,> 200 µM,–,> 200 µM,132 µM,266.66 ± 0.077 µM,–,–
O=C(O)[C@H]1O[C@@H](Oc2cc3oc(-c4ccccc4)cc(=O)c3c(O)c2O)[C@H](O)[C@@H](O)[C@@H]1O [Baicalin],–,> 0.01 µM,–,> 0.01 µM,2.75 µM,0.015 µM,–,–
O=c1cc(-c2ccc(O)cc2)oc2cc(O)cc(O)c12 [Apigenin],218.34 ± 0.11 µM,94.16 ± 0.047 µM,81.3 µM,–,–,–,119.61 ± 0.032 µM,–
MeOH,–,–,–,–,–,–,–,923.12 ± 0.017 µg/mL
Chloroform,–,–,–,–,–,–,–,829.77 ± 0.009 µg/mL
